Experimental data reported in patent US10196389B2, “One class of pyrazolone compounds and use thereof” (SHANGHAI INSTITUTE OF MATERIA MEDICA, CHINESE ACADEMY OF …, priority 2014, dated 2019).

The molecules below were run against T1, human AMPK (α2β1γ1) (Homo sapiens, UniProt P54619+P54646+Q9Y478) (assay: AMPK (α2β1γ1) activation at molecular level, HTRF KinEASE-STK S1 kinase assay). Details: activation of human AMPK (α2β1γ1), 4 μM ATP, 45 min at 30° C.
T1 construct: made in house; host or cells: E. coli
T1 sequence (P54646 whole entry): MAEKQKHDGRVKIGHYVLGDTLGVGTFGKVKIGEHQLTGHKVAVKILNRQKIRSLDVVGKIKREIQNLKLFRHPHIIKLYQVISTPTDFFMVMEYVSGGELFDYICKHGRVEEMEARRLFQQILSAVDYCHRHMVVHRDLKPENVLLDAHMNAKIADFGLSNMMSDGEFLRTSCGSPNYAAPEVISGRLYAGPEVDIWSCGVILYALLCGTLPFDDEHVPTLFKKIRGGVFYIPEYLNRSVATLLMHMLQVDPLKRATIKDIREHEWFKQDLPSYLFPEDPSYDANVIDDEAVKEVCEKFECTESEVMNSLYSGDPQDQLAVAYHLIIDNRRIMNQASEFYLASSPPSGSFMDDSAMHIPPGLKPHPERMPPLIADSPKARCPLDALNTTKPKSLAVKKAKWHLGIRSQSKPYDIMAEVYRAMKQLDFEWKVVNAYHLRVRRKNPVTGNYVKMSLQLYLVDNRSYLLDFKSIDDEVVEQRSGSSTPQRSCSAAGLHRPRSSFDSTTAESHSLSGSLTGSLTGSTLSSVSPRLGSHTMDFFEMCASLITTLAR
T1 sequence (Q9Y478 whole entry): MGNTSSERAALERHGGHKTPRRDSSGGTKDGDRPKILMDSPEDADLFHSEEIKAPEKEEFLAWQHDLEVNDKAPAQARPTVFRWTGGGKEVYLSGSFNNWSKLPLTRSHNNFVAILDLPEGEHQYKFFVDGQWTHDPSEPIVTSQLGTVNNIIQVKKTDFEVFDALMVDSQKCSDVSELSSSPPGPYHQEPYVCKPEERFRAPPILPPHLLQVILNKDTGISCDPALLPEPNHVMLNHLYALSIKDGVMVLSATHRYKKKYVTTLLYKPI
T1 sequence (P54619 whole entry): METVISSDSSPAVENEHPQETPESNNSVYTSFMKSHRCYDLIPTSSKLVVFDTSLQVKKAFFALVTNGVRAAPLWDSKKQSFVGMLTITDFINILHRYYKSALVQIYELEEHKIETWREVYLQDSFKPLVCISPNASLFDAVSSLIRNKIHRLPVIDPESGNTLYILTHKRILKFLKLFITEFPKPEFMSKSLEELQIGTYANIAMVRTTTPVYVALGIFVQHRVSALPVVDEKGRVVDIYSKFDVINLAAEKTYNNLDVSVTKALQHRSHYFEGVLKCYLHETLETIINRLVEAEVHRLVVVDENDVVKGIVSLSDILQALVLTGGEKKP
Format: biochemical
Protocol: 1. Purpose of the experiment: To screen small molecule compounds that can activate AMPK (α2β1γ1).
2. Principle of the experiment: The peptide as substrate contains sites which can be AMPK phosphorylated. One terminal of the peptide is linked with biotin in the reaction system (containing 2 mM MgCl2, 400 μM DTT, 160 nM substrate peptide, 4 μM ATP and 1.6 nM AMPK). In the biotinylated terminal, biotin can link with streptavidin-XL665 (acceptor) so as to complete the labeling. After 45 minute of phosphorylation reaction, the phosphorylated substrate (i.e., product) can bind to an antibody (labeled Donor) which recognizes the phosphorylating site, and the biotin on the other terminal can linked to streptavidin-XL665 (acceptor) so that the resulting FRET signal can be detected with PE Evision. The final AMPK activity is expressed as a ratio of the 665 nm wavelength reading to the 615 nm wavelength reading (665 nm/615 nm).
3. Detection reagent: The human AMPK (α2β1γ1) protein was obtained by expression using an E. coli expression system and purification. HTRF KinEASE-STK S1 kit (purchased from Cisbio's); ATP (purchased from Sigma).
1) 200 nM AMPK (α2β1γ1) protein was incubated with 200 nM CaMKKβ at 30° C. for 4 hours in water bath to completely phosphorylate AMPK.
2) The enzyme reaction system (2 mM MgCl2, […], 160 nM substrate peptide, 4 µM ATP, and 1.6 nM AMPK) was prepared by using a white shallow plate purchased from PE. The reaction was reacted at 30° C. for 45 minutes. Phosphorylated recognizing peptides of the antibody and the XL665 Detection buffer were added and the mixture was incubated at room temperature for 3 hours before the signals were detected.
`COc1ccc(CNC(=O)c2ccc(CN3C=C4C(=O)N(c5ccc(S(N)(=O)=O)cc5)N=C4CC3)cc2)cc1OC` [ZM-17] was tested, and the “Activation ratio (Fold)” value was 2.1 Fold and the EC50 was 9.5 µM. With `COc1ccc(CNC(=O)c2ccc(CN3C=C4C(=O)N(c5nc6ccccc6s5)N=C4CC3)cc2)cc1OC` [ZM-18] the “Activation ratio (Fold)” value was 2.8 Fold and the EC50 was 6.3 µM. For `COc1ccc(CNC(=O)c2ccc(CN3C=C4C(=O)N(c5ccc(F)c(C(F)(F)F)c5)N=C4CC3)c(C)c2)cc1OC` [ZM-19], the “Activation ratio (Fold)” value was 2.6 Fold and the EC50 was 5.6 µM. In the case of `COc1cc(F)c(CNC(=O)c2ccc(CN3C=C4C(=O)N(c5ccc(F)c(C(F)(F)F)c5)N=C4CC3)cc2)cc1OC` [ZM-20], the “Activation ratio (Fold)” value is reported as 2.8 Fold and the EC50 is reported as 4.4 µM. `COc1ccc(C(C)(C)NC(=O)c2ccc(CN3C=C4C(=O)N(c5ccc(F)c(C(F)(F)F)c5)N=C4CC3)cc2)cc1OC` [ZM-21] was tested, and the “Activation ratio (Fold)” value was 2.2 Fold and the EC50 was 4 µM. In the case of `CCOc1cc(CNC(=O)c2ccc(CN3C=C4C(=O)N(c5ccc(F)c(C(F)(F)F)c5)N=C4CC3)cc2)ccc1OC` [ZM-22], the “Activation ratio (Fold)” value is reported as 2.9 Fold and the EC50 is reported as 6.7 µM. `CCOc1ccc(CNC(=O)c2ccc(CN3C=C4C(=O)N(c5ccc(F)c(C(F)(F)F)c5)N=C4CC3)cc2)cc1OC` [ZM-23] was tested, and the “Activation ratio (Fold)” value was 3.0 Fold and the EC50 was 5.4 µM. For `CCOc1ccc(CNC(=O)c2ccc(CN3CCc4c(c(=O)n(-c5ccc(F)c(C(F)(F)F)c5)n4C)C3)cc2)cc1OC` [ZM-24], the “Activation ratio (Fold)” value was 2.8 Fold and the EC50 was 2.5 µM. `COc1cc(CNC(=O)c2ccc(CN3CCc4c(c(=O)n(-c5ccc(F)c(C(F)(F)F)c5)n4C)C3)cc2)ccc1OC(C)C` [ZM-25] was tested, and the “Activation ratio (Fold)” value was 3.1 Fold and the EC50 was 2.5 µM. With `CCOc1cc(CNC(=O)c2ccc(CN3CCc4c(c(=O)n(-c5ccc(F)c(C(F)(F)F)c5)n4C)C3)cc2)ccc1OC` [ZM-26] the “Activation ratio (Fold)” value was 2.3 Fold and the EC50 was 3 µM. For `COc1cc(CNC(=O)c2ccc(CN3C=C4C(=O)N(c5ccc(F)c(C(F)(F)F)c5)N=C4CC3)cc2)ccc1OC(F)F` [ZM-27], the “Activation ratio (Fold)” value was 2.3 Fold and the EC50 was 5 µM. In the case of `COc1ccc(C2(NC(=O)c3ccc(CN4C=C5C(=O)N(c6ccc(F)c(C(F)(F)F)c6)N=C5CC4)cc3)CC2)cc1OC` [ZM-28], the “Activation ratio (Fold)” value is reported as 2.6 Fold and the EC50 is reported as 3.2 µM. For `COc1cc(CNC(=O)c2ccc(CN3C=C4C(=O)N(c5ccc(F)c(C(F)(F)F)c5)N=C4CC3)cc2)ccc1OC(C)C` [ZM-29], the “Activation ratio (Fold)” value was 2.9 Fold and the EC50 was 9.7 µM. In the case of `COc1cc(CNC(=O)c2ccc(CN3C=C4C(=O)N(c5ccc(F)c(C(F)(F)F)c5)N=C4CC3)cc2)ccc1O` [ZM-30], the “Activation ratio (Fold)” value is reported as 2.7 Fold and the EC50 is reported as 8.6 µM. With `O=C(NCc1ccc(OC(F)F)c(OC(F)F)c1)c1ccc(CN2C=C3C(=O)N(c4ccc(F)c(C(F)(F)F)c4)N=C3CC2)cc1` [ZM-31] the “Activation ratio (Fold)” value was 3.1 Fold and the EC50 was 5.4 µM. `COc1ccc(CNC(=O)c2ccc(CN3C=C4C(=O)N(c5ccc(F)c(C(F)(F)F)c5)N=C4CC3)cc2)cc1OC(F)F` [ZM-32] was tested, and the “Activation ratio (Fold)” value was 2.4 Fold and the EC50 was 4.1 µM. `COc1ccc(CNC(=O)c2ccc(CN3CCC4=NN(c5ccc(F)c(C(F)(F)F)c5)C(=O)C4(C)C3)cc2)cc1OC` (stereo not drawn) [ZM-33] was tested, and the “Activation ratio (Fold)” value was 2.7 Fold and the EC50 was 7.8 µM. `[2H]C([2H])([2H])Oc1ccc(CNC(=O)c2ccc(CN3C=C4C(=O)N(c5ccc(F)c(C(F)(F)F)c5)N=C4CC3)cc2)cc1OC` [ZM-34] was tested, and the “Activation ratio (Fold)” value was 2.1 Fold and the EC50 was 6.3 µM.
